Reference: patent publication US20240041870A1, “METHODS OF TREATING SYSTEMIC LUPUS ERYTHEMATOSUS” (AbbVie Inc., priority 2022, published 2024)

Legend:
[1] = test system: anti-dsDNA autoantibodies, complement C3 and C4, IgG, IgM, circulating B cells; test: Biomarker analysis in Study M19-130; assay type: in vivo, human
Source text: Biospecimens (whole blood, peripheral blood mononuclear cells [PBMCs], plasma, and serum) were collected at specified time points throughout the study to evaluate known and/or novel disease-related or drug-related biomarkers. Types of biomarkers may have included nucleic acids, proteins, lipids, RNA, DNA, and/or metabolites. The objective of this research was to analyze samples for biomarkers that would help to understand SLE, related conditions, and response to treatment with upadacitinib or similar compounds.
Increased circulating memory, naïve, and total B cells were also observed.
The Week 48 predefined biomarker analyses confirmed the trends observed at Week 24.

[2] = Upadacitinib pharmacokinetics in Study M19-130 (model-estimated steady-state exposure); assay type: in vivo, human; settings: 30 mg QD; subjects with SLE; plasma
Source text: Upadacitinib plasma concentrations were summarized at each sampling time point using descriptive statistics. A mixed-effects modeling approach may have been used to estimate the population central value and the empirical Bayesian estimates of the individual values for upadacitinib oral clearance (CL/F) and volume of distribution (Vss/F). Additional parameters and pharmacokinetic (PK)/pharmacodynamic relationships may have been estimated if useful in the interpretation of the data.
The model-estimated median ([…]) steady-state (SS) Cavg in subjects with SLE was 28.4 (19.1-46.6) ng/mL for upadacitinib 30 mg QD.

## CC[C@@H]1CN(C(=O)NCC(F)(F)F)C[C@@H]1c1cnc2cnc3[nH]ccc3n12 [Upadacitinib, (3S,4R)-3-ethyl-4-(3H-imidazo[1,2-a]pyrrolo[2,3-e]pyrazin-8-yl)-N-(2,2,2-trifluoroethyl)pyrrolidine-1-carboxamide]
[1]; 30 mg QD, Week 48 analysis
  anti-dsDNA autoantibodies: meaningful decreases
  complement C3 level: early reduction (a known effect of JAK inhibitors) followed by a progressive normalization
  complement C4 level: early reduction (a known effect of JAK inhibitors) followed by a progressive normalization
[1]; 30 mg, Week 24 analysis
  circulating memory B cells: Increased
  circulating naïve B cells: Increased
  circulating total B cells: Increased
  level of C3 complement compared to Baseline: significant decrease
  level of C4 complement compared to Baseline: significant decrease
  level of IgG: significant decreases
  level of IgM compared to Baseline: significant decrease
  level of anti-dsDNA autoantibodies: significant decreases
[2]
  model-estimated median (prediction interval) steady-state (SS) Cavg: 28.4 (19.1-46.6) ng/mL
